Experimental data as given in patent US9693982B2, “Composition for amelioration of hypoalbuminemia” (OTSUKA PHARMACEUTICAL FACTORY, INC., priority 2010, dated 2017).

Test system: albumin mRNA
Test: Albumin mRNA expression of cultured human hepatocytes (Experiment 1, real time RT-PCR)
Format: cell-based
Conditions: for Expression level of albumin mRNA (mean ± SD): 24 hours after addition, ratio based on HPRT1 mRNA (regarded as 1), human hepatocytes Lot 100, triplicate; for Effect on albumin mRNA expression level (in words): human hepatocytes, 20 mM, 60 mM
Experimental: In this test, human primary cultured hepatocytes were cultured by each test solution to check a change of albumin mRNA expressional potency and a change of secretion level of albumin. The test was performed as follows.
Albumin mRNA and HPRT1 mRNA were measured. The nucleotide sequences of albumin and HPRT1 are registered in the GenBank as follows and each nucleotide sequence follows the sequence registered.
Note that, HPRT1, which is a house keeping gene serving as a control, was measured in the same test. The sequences of primers and probes used in measurement of albumin are made public in Nishimura, M., Yoshitsugu, H., Yokoi, T., Tateno, C., Kataoka, M., Horie, T., Yoshizato, K. and Naito, S.: Evaluation of mRNA expression of human drug-metabolizing enzymes and transporters in chimeric mouse with humanized liver. Xenobiotica, 35: 877-890 (2005). Furthermore, the sequences of primers and probes used in measurement of HPRT1 are made public in Nishimura, M., Naito, S. and Yokoi, T.: Tissue-specific mRNA expression profiles of human nuclear receptor subfamilies. Drug Metab. Pharmacokinet., 19: 135-149 (2004).
Furthermore, mRNA was quantified by use of the primer pairs and probe represented by individual sequences (the position of initiation codon follows the each nucleotide sequence registered) shown in the following Table 1 and in accordance with RT-PCR (Real-time quantitative reverse transcription-polymerase reaction). Each of the primers and probe was prepared by an automatic DNA synthesizer.
As the test solution of the Livact composition, a Livact composition was dissolved such that the concentrations of Ile, Leu, and Val became 13.8 mM, 27.7 mM, and 18.5 mM, respectively after blending (60 mM as the concentration of the Livact composition test solution). Note that, in the dissolution procedure, a Livact composition was dissolved in Buffer A and then a medium was added in an amount 1/10 as low as that of Buffer A.
As an Ile, Leu or Val solution, Ile, Leu or Val was dissolved so as to have a concentration of 60 mM. Note that, in the dissolution procedure, Ile, Leu or Val was dissolved in Buffer A and then a medium was added in an amount 1/10 as low as that of Buffer A.
The Livact composition test solution prepared in Section (2-3) and Ile, Leu or Val solution prepared in Section (2-4) were diluted 3 fold with Buffer B to prepare a 20 mM solution.
According to a method of Nishimura et al. (Nishimura, M., Yoshitsugu, H., Naito, S. and Hiraoka, I.: Evaluation of gene induction of drug-metabolizing enzymes and transporters in primary culture of human hepatocytes using high-sensitivity real-time reverse transcription PCR. Yakugaku Zasshi, 122: 339-361 (2002)), 1×10^5 cells/400 μL was dispensed in each well of a 24 well plate and cultured in a CO2 incubator. After 3 hours, medium exchange was performed. Further after 21 hours (24 hours after inoculation), medium exchange was performed. Thereafter, the medium was exchanged every 24 hours. Note that, the amount of liquid medium to be exchanged was set at 400 μL/well. Furthermore, exchange to each test solution was performed at the after 48 hours at which medium exchange was performed.
After human hepatocytes (1×10^5 viable cells/0.4 mL/well) were inoculated, medium exchange was performed 3 hours and 24 hours after inoculation. Note that, the viability at the inoculating time was 90.4% (Lot 100). Then, 48 hours after inoculation, a test substance was added and 24 hours after addition of the test substance was initiated, Total RNA was extracted (using Rneasy Mini Kit). Quantification of mRNA of albumin and HPRT1 was performed by real time RT-PCR. Note that, HPRT1, which is a house keeping gene, was used as an internal standard.
After the medium was suctioned, Total RNA was extracted by use of QIA shredder and Rneasy Mini Kit. Now, a preparation method using the Kit will be described below. […]

SMILES	Expression level of albumin mRNA (mean ± SD) (20 mM total test substance)	Expression level of albumin mRNA (mean ± SD) (60 mM total test substance)	Effect on albumin mRNA expression level (in words)
CC[C@H](C)[C@H](N)C(=O)O [Ile, Isoleucine]	174 ± 33	222 ± 27	increases in an additive manner
CC(C)C[C@H](N)C(=O)O [Leu, Leucine]	215 ± 63	255 ± 53	increases in an additive manner
CC(C)[C@H](N)C(=O)O [Val, Valine, reference compound]	127 ± 17	118 ± 10	
